From ChEMBL document CHEMBL1201862, “PubChem BioAssay data set” (2004)
Activity calls are given as the source filed them.

How the values were obtained:
[1] = test system: HeLa; test: HeLa cell cytotoxicity, dose response, cytotoxicity control for MITF activator project, CellTiter-Glo luminescence, cherry-pick samples (AID 540259); format: functional, cell-based; details: Homo sapiens
[2] = test system: Streptococcus sp. 'group A'; test: growth inhibition of control SK(-) GAS strain, dose response, counter-screen for streptokinase expression inhibitor project, luminescence, kanamycin, BacTiterGlo, confirmation (AID 1900); format: functional, organism-based
[3] = test system: Streptococcus; test: Group A Streptococcus viability loss, dose response, counter-screen for streptokinase expression inhibitor project, luminescence, BacTiterGlo (AID 1915); format: functional, organism-based;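 note: potency for reduction of bacterial viability or growth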
[4] = (§1) Counterscreen for antagonists of the orexin 1 receptor (OX1R; HCRTR1): Fluorescence-based cell-based high throughput dose response assay to identify antagonists of the parental CHO cell line. [Related pubchem assays (depositor defined):AID434989, AID435008, AID463079, AID485270, AID492963, AID492964, AID492965, AID493232, AID504699, AID504701]; format: functional
[5] = target: T1, Orexin/Hypocretin receptor type 1 (Homo sapiens, UniProt O43613); test: (§2) Fluorescence-based cell-based high throughput dose response assay for antagonists of the orexin 1 receptor (OX1R; HCRTR1). [Related pubchem assays (depositor defined):AID434989, AID435008, AID463079, AID485270, AID492963, AID492964, AID492965, AID493232, AID504717, AID504718]; format: functional
T1 sequence (O43613 whole entry): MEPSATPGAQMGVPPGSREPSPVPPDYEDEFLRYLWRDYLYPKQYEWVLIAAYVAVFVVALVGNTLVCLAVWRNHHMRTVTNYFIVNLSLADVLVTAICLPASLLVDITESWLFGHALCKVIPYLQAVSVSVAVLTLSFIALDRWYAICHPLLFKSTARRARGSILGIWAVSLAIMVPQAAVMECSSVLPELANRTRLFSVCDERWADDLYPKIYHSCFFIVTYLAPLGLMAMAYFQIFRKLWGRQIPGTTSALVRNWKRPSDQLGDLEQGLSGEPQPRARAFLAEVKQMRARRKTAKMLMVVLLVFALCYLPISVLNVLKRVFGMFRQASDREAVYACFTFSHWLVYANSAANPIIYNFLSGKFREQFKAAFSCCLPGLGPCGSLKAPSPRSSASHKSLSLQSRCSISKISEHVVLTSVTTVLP

[6] = target: T2, Orexin receptor type 2 (Homo sapiens, UniProt O43614); test: Counterscreen assay for antagonists of the orexin 1 receptor (OX1R; HCRTR1): Fluorescence-based cell-based dose response assay for antagonists of the orexin 2 receptor (OX2R; HCRTR2), run by assay provider.; format: functional
T2 sequence (O43614 whole entry): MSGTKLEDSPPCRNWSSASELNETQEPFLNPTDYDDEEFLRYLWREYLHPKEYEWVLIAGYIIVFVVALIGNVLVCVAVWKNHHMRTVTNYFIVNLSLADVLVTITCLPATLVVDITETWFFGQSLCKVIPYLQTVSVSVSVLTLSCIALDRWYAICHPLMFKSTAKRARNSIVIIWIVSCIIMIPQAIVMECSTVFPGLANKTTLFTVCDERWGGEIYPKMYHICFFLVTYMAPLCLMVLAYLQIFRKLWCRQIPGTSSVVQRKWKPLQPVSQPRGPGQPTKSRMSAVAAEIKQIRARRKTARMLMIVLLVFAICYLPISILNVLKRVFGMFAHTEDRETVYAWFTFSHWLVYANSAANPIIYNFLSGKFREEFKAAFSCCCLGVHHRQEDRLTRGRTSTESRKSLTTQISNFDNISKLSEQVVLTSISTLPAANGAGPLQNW

[7] = target: T2, Orexin receptor type 2; test: Counterscreen assay for antagonists of the orexin 1 receptor (OX1R; HCRTR1): Homogeneous Time Resolved Fluorescence (HTRF)-based cell-based dose response assay for antagonists of the orexin 2 receptor (OX2R; HCRTR2), run by assay provider.; format: functional
[8] = Luminescence Cell-Based Dose Retest to Confirm Inhibitors of Cancer Stem Cells. [Related pubchem assays (depositor defined):AID2717, AID2721]; format: functional; details: Homo sapiens
[9] = target: T3, Streptokinase A (Streptococcus pyogenes serotype M1, UniProt P10520); test: S. pyogenes streptokinase expression inhibitors, potency, dose response, plasminogen activation absorbance, OD405 (AID 1914); format: functional, Streptococcus pyogenes M1 GAS;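 note: secreted streptokinase activity via plasminogen activation per viability signal from cell pellet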
T3 sequence (P10520 whole entry): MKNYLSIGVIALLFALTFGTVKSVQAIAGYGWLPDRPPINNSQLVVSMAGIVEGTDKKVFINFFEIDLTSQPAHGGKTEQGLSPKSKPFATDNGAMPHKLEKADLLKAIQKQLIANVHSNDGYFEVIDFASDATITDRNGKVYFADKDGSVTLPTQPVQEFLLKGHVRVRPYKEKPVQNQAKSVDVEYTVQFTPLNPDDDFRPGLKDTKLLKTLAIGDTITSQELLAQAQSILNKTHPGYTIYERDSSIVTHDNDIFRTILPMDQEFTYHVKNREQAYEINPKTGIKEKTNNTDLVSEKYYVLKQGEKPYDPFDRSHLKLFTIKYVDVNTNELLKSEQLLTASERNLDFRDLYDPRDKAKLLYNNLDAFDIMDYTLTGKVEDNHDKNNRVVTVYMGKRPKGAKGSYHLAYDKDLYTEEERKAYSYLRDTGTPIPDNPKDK

[10] = target: T1, Orexin/Hypocretin receptor type 1; test: as §2, with “Homogeneous Time Resolved Fluorescence (HTRF)-based” for “Fluorescence-based”; format: functional
[11] = test system: CHO-K1; test: as §1, with “Homogeneous time resolved fluorescence (HTRF)-based” for “Fluorescence-based”, “cell-based” for “cell-based high throughput”, “CHO-K1” for “CHO”; format: functional; details: Cricetulus griseus;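 note: potency for inhibition of ATP-stimulated IP1 production as antagonists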
[12] = cytotoxicity in HMLE control line with eGFP shRNA, dose response, counter-screen for HMLE_sh_ECad selective toxicity project, cell-based, HMLE_sh_eGFP, luminescence (AID 463074); format: functional, Homo sapiens;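 note: HMLE human mammary epithelial cells expressing control shRNA against eGFP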
[13] = target: Dual specificity tyrosine-phosphorylation-regulated kinase 1A (Rattus norvegicus, UniProt Q63470); format: biochemical, Homo sapiens
[14] = target: Dual specificity protein kinase CLK1 (Homo sapiens, UniProt P49759); test: CLK1 kinase inhibitors, off-target check, dose response, selectivity assay for Dyrk1A inhibitor project, biochemical, cherry-picked samples (AID 588811)
Dual specificity protein kinase CLK1, sequence (P49759 whole entry): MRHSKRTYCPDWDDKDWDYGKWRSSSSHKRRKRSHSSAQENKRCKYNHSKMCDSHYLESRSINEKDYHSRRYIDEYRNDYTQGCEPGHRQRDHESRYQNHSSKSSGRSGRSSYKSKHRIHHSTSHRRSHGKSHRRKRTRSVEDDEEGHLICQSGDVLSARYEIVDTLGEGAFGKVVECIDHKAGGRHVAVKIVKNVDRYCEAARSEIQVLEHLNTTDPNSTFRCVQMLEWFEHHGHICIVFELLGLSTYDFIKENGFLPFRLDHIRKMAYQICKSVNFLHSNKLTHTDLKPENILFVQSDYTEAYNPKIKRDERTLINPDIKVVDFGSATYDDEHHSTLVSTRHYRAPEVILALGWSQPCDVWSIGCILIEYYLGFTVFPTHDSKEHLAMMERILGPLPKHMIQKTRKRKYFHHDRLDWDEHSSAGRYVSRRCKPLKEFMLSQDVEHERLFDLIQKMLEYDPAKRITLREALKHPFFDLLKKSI

Compound: Cc1ccc(NC(=O)C(=O)NCc2ccccn2)cc1
- AC50 [1]: > 350 µM (inactive)

Compound: O=c1c2ccccc2oc2cc(-c3ccc4[nH]ccc4c3)ccc12
- EC50 [2]: 8.57 µM (active)
- EC50 [3]: > 150 µM (not active)
- IC50 [4]: 48.8 µM (inactive)
- IC50 [5]: 6.96 µM (active)
- IC50 [6]: 40 µM (inactive)
- IC50 [7]: > 50 µM (inactive)
- AC50 [8]: 0.255 µM (active)
- EC50 [9]: > 150 µM (not active)
- IC50 [10]: 2.71 µM (active)
- IC50 [11]: > 66.3 µM (inactive)
- AC50 [12]: 0.29 µM (inconclusive)

Compound: COc1ccc(C=C2SC(=S)NC2=O)cc1
- AC50 [13]: 0.104 µM (active)

Compound: Clc1cc(Cl)cc(CNc2ncncc2-c2ccc3c(c2)OCO3)c1
- AC50 [14]: 0.0305 µM (active)
